Reference: ChEMBL document CHEMBL1156829 (Proc Natl Acad Sci U S A, 2008)
pEC50: −log10 of the molar value. Numbered stars: 1 amine (or outer) side, 2 acyl side, 3 side chain; on linkers, the order of the positions; unused ones are H or OH. Bridge positions count the residues as written; N and C are the ends. Square brackets hold non-standard residues; d marks the D form. Peptide text beside a SMILES is read from it. I, II: the chains in the order shown. * marks the point of attachment. ξ: configuration not given here. Actinocin(9to1) = Cc1c2oc3c(C)ccc(C(=O)[*:1])c3nc-2c(C(=O)[*:2])c(N)c1=O; X1 = CCC(=O)CC(O)C[C@@H](C)C[C@H](N[*:1])C(=O)[*:2]; Hexenoyl(2E,4S-Me) = CC[C@H](C)/C=C/C(=O)*; Leu(3R-OH) = CC(C)[C@@H](O)[C@H](N)C(=O)O; NH((S)CH(Me)CH2NMe2) = C[C@@H](CN(C)C)N*; Pro(4S-Me) = C[C@@H]1CN[C@H](C(=O)O)C1; ξNMeV = CNC(C(=O)O)C(C)C; Boc = CC(C)(C)OC(=O)*; Aib = CC(C)(N)C(=O)O; ξT = CC(O)C(N)C(=O)O; OBn = c1ccc(CO*)cc1; NHCH2CH2OH = OCCN*; ξP = O=C(O)C1CCCN1; βAla = NCCC(=O)O; Sar = CNCC(=O)O; For = O=C*

Legend:
[1] = tested on: Plasmodium falciparum; assay: NOVARTIS: Inhibition of Plasmodium falciparum 3D7 (drug-susceptible) proliferation in erythrocyte-based infection assay; type: functional, organism-based; settings: Plasmodium falciparum, 3D7
[2] = tested on: Plasmodium falciparum; assay: NOVARTIS: Inhibition of Plasmodium falciparum W2 (drug-resistant) proliferation in erythrocyte-based infection assay; type: functional, organism-based; settings: Plasmodium falciparum, W2; read-out: EC50
[3] = NOVARTIS: Cytotoxicity against human hepatocellular carcinoma cell line (Huh7); type: toxicity, cell-based, Huh-7; settings: Huh7 cells (hepatocellular carcinoma cell line)

Compound	pEC50 [1]	pEC50 [2]	CC50 [3] [nM]
C[n+]1ccc(C=Cc2ccccc2F)c2ccccc21	7.24	7.11	81900
O=C(c1cnn(-c2ccccc2)c1C(F)(F)F)N1CCN(c2ccnc3cc(Cl)ccc23)CC1	6.46	7.05	> 100000
O=[N+]([O-])c1ccc(N2CCCN(C(=S)Nc3ccc(F)cc3Br)CC2)nc1	6.96	7.04	> 100000
COc1cc(OC)c(NC(=O)C2c3ccccc3C(=O)N(CC(C)C)C2c2cccs2)cc1Cl (centres undefined)	6.94	7.04	> 100000
COc1cc(C2Nc3ccc4ccccc4c3C3=C2C(=O)CC(C)(C)C3)ccc1Oc1ccc([N+](=O)[O-])cc1C(F)(F)F (centres undefined)	6.55	7.02	> 100000
O=C(N1CCN(c2ccc(C(F)(F)F)cc2[N+](=O)[O-])CC1)C(Cl)(Cl)Cl	6.58	7.06	> 95000
CCCN(CCC)[P+](CCC)(c1ccc([P+](CCC)(N(CCC)CCC)N(CCC)CCC)cc1)N(CCC)CCC	6.71	7.18	72600
c1ccc2c(c1)OC13CCCCC1C2NCC3 (centres undefined)	6.57	7.36	48600
CN(C)c1ccc(C=Cc2nc(=O)c3ccccc3o2)cc1	7.02	7.02	> 100000
CCOC(=O)c1cccc(NC(=O)CC2C(=O)N(c3ccccc3)C(=O)N2C2CCCC2)c1 (centres undefined)	6.56	7.05	> 100000
Cc1ccn2c(NC(C)(C)CC(C)(C)C)c(-c3ccccc3OC(=O)c3ccccc3C)nc2c1	6.12	> 8.04	> 10000
COc1cccc(-c2ccc(O)c(CN(C)CCc3ccc(OC)c(OC)c3)c2)n1	6.47	7.28	57900
CC(=NO)c1ccc(NC2=C(N3CCCCC3)C(=O)c3ccccc3C2=O)cc1	7.03	7.05	> 100000
CCOC(=O)c1cccc(NC(=O)CCn2c(-c3ccc(F)cc3)cc(C(=O)OCC)c2C)c1	7.23	7.05	> 100000
O=C1C(=Cc2ccccc2)Oc2c1ccc(O)c2CN1CCCCC1	5.85	7.04	> 100000
O=C(c1cccc([N+](=O)[O-])c1)c1ccc(Cl)c(Cl)c1	6.21	7.24	62400
CCOc1ccc(Nc2cc(=O)oc3ccccc23)cc1	6.21	7.04	> 100000
COc1ccc(CCN2C(=O)N(CC(C)C)C(=O)C23CCN(Cc2ccccc2O)CC3)cc1	6.65	7.03	> 100000
CCCCS(=O)(=O)N(C)CCCNc1ccnc2cc(Cl)ccc12	7.16	> 8.04	> 10000
O=C(Nc1ccc(F)c(Cl)c1)c1c2c(nc3ccccc13)CCN(Cc1ccccc1)C2	6.10	7.01	> 100000
COC(=O)C1=C(C)NC2=C(C(=O)CC(c3ccc(OC)c(OC)c3)C2)C1c1cccc(Cl)c1Cl (centres undefined)	6.68	7.03	> 100000
CCCOC(=O)C1=C(C)NC2=C(C(=O)CC(c3ccc(OC)c(OC)c3)C2)C1c1ccc(Cl)c(Cl)c1 (centres undefined)	6.84	7.31	52600
CCc1ccc(C(=O)Oc2ccccc2-c2nc3cc(C)ccn3c2NC(C)(C)CC(C)(C)C)cc1	6.34	> 8.03	> 10000
C[C@@H]1CCC[C@@H](C[C@H]2Cc3cc(O)cc(O)c3C(=O)O2)O1	7.34	7.03	> 100000
CN1C(=O)N(C)C2(c3ccccc3)NN3C(=NC12c1ccccc1)SC1=C3C(=O)c2ccccc2C1=O (centres undefined)	5.55	7.02	> 100000
COC(=O)C1=C(C)NC2=C(C(=O)CC(c3ccc(OC)cc3)C2)C1c1ccccc1F (centres undefined)	6.64	7.05	> 100000
Cc1ccn2c(NC(C)(C)CC(C)(C)C)c(-c3ccccc3OC(=O)c3ccc(Cl)cc3Cl)nc2c1	6.14	> 8.06	> 10000

Compound	pEC50 [1]	pEC50 [2]	CC50 [3] [nM]
CC(=O)N(C1=C(N2CCCCC2)C(=O)c2ccccc2C1=O)c1ccccc1C	7.47	7.74	20200
CCOC(=O)c1ccc(NCc2c(C)[nH]c(C(=O)OCC)c2C)cc1	6.62	7.01	> 100000
COCCNC(=O)c1ccc(OC2CCN(CC(c3ccccc3)c3ccccc3)CC2)c(OC)c1	6.52	7.13	> 76700
O=[N+]([O-])c1ccc(S(=O)(=O)N2CCN(C(=S)NCCc3ccccc3)CC2)cc1	7.01	7.01	> 100000
CN1CCN=C1c1ccc(NC(=O)c2ccc(C(=O)Nc3ccc(C4=NCCN4C)cc3)c([N+](=O)[O-])c2)cc1	7.14	8.04	> 10000
O=C(Nc1ccc(C2=NCCCN2)cc1)c1ccc(C(=O)Nc2ccc(C3=NCCCN3)cc2)cc1	6.92	7.03	> 100000
Oc1ccc(-c2ccccc2)cc1CNCCc1ccc(F)cc1	6.16	> 8.01	> 10000
COc1ccc(C(OCCS(=O)(=O)CCO)(c2ccccc2)c2ccc(OC)cc2)cc1	7.15	7.31	51600
CCCCN(C)Cc1cc(-c2cccc(OC)n2)ccc1O	6.06	7.04	> 100000
Cc1cc(-c2ccc(O)c(CN3CCCCC3CO)c2)c2ccccc2n1 (centres undefined)	6.44	7.24	59100
CC(C)CC(NC(=O)OC(C)(C)C)C(=O)NC(Cc1ccccc1)C(=O)OCc1ccccc1 (stereo not drawn) (Boc-Leu-Phe-OBn; configuration not given here)	< 4.90	5.53	> 100000
CC(C)C[C@@H](NC(=O)[C@H](C)NC(=O)CNC(=O)[C@@H](NC=O)C(C)C)C(=O)N[C@@H](C)C(=O)N[C@@H](C(=O)N[C@H](C(=O)N[C@@H](C(=O)N[C@@H](Cc1c[nH]c2ccccc12)C(=O)N[C@H](CC(C)C)C(=O)N[C@@H](Cc1c[nH]c2ccccc12)C(=O)N[C@H](CC(C)C)C(=O)N[C@@H](Cc1c[nH]c2ccccc12)C(=O)N[C@H](CC(C)C)C(=O)N[C@@H](Cc1c[nH]c2ccccc12)C(=O)NCCO)C(C)C)C(C)C)C(C)C (For-VGA[dL]A[dV]V[dV]W[dL]W[dL]W[dL]W-NHCH2CH2OH)	5.54	5.52	98800
Cc1c2oc3c(C)ccc(C(=O)NC4C(=O)N[C@@H](C(C)C)C(=O)N5CCCC5C(=O)N(C)CC(=O)N(C)C(C(C)C)C(=O)OC4C)c3nc-2c(C(=O)NC2C(=O)N[C@H](C(C)C)C(=O)N3CCCC3C(=O)N(C)CC(=O)N(C)C(C(C)C)C(=O)OC2C)c(N)c1=O (some centres undefined) (I: [ξT]V[ξP][Sar][ξNMeV] / II: [ξT][dV][ξP][Sar][ξNMeV]; ester I:1-I:C, II:1-II:C; linker I:N-II:N via Actinocin(9to1))	7.59	7.68	296
CC(C)C[C@@H]1NC(=O)[C@@H](CC(C)C)NC(=O)[C@H](C(C)C)NC(=O)[C@H]2CSSC[C@@H](NC1=O)C(=O)N2 (cyclo(L[dC][dC]V[dL]); disulfide 2-3)	< 5.90	6.79	> 10000
CCC(=O)CC(O)C[C@@H](C)C[C@H](NC(=O)[C@@H]1C[C@H](C)CN1C(=O)/C=C/[C@@H](C)CC)C(=O)N[C@H](C(=O)NC(C)(C)C(=O)N[C@@H](CC(C)C)C(=O)N[C@@H](CC(C)C)C(=O)NC(C)(C)C(=O)NC(C)(C)C(=O)NCCC(=O)N[C@@H](C)CN(C)C)[C@H](O)C(C)C (stereo partly drawn) ({Hexenoyl(2E,4S-Me)}-[Pro(4S-Me)][X1][Leu(3R-OH)][Aib]LL[Aib][Aib][βAla]-{NH((S)CH(Me)CH2NMe2)})	6.71	6.19	6470
CCCn1c(=O)c2[nH]c(C3CCCC3)nc2n(CCC)c1=O [1,3-DIPROPYL-8-CYCLOPENTYLXANTHINE [DPCPX]]	6.12	6.46	[…]
N/C(=N\C(=O)c1nc(Cl)c(N)nc1N)NCc1ccc(Cl)c(Cl)c1 [3',4' DICHLOROBENZAMIL]	7.05	6.55	4590
COc1cc([C@@H]2OC[C@@H]3[C@H]2CO[C@H]3c2cc(OC)c(O[C@@H]3O[C@H](CO)[C@@H](O)[C@H](O)[C@H]3O)c(OC)c2)cc(OC)c1O [ACANTHOSIDE B]	6.11	6.41	> 10000
CCN1CCN(Cc2ccc(-c3cc4c(N[C@H](C)c5ccccc5)ncnc4[nH]3)cc2)CC1 [AEE-788]	5.86	7.55	27800
CCN(CC)CCCC(C)Nc1cc(/C=C/c2ccccc2Cl)nc2cc(Cl)ccc12 (centres undefined) [AMINOQUINOL]	6.75	6.55	> 10000
COc1ccc(C[C@H]2NC[C@H](O)[C@H]2OC(C)=O)cc1 [ANISOMYCIN]	8.01	7.99	> 2360
C[C@@H]1CC[C@H]2[C@@H](C)C(=O)O[C@@H]3O[C@@]4(C)CC[C@@H]1[C@]32OO4 [ARTEMISININ]	7.37	7.99	> 10000
C[C@H]1[C@@H](O)O[C@@H]2O[C@@]3(C)CC[C@H]4[C@H](C)CC[C@@H]1[C@@]24OO3 [ARTENIMOL]	7.93	8.15	44900
COc1ccc(CCN2CCC(Nc3nc4ccccc4n3Cc3ccc(F)cc3)CC2)cc1 [ASTEMIZOLE]	6.35	6.15	20900
COc1ccc2cc3[n+](cc2c1OC)CCc1cc2c(cc1-3)OCO2 [BERBERINE CHLORIDE]	6.66	6.35	> 100000
CCOC(=O)c1cnc2cc(OCC(C)C)c(OCC(C)C)cc2c1O [BUQUINOLATE]	6.19	6.02	> 10000
